US8105796B2, “Regulation of expression of PI3Kβ protein in tumors” (Universita' Degli Studi di Torino, priority 2007, dated 2012)

What was measured:
PI3Kβ^+/+ MEFs = assay: Proliferation curve of mouse embryonic fibroblasts (MEFs) with p110β inhibitors; format: cell-based
Experimental: FIG. 3. PI3Kβ^KR expression dosage inversely correlates with phenotype severity. a) MEFs were derived from normal (PI3Kβ^KR/KR(High)) or abnormal PI3Kβ^KR/KR (Low)) embryos and the expression level of the PI3Kβ^KR/KR protein was analyzed by SDS-PAGE and immunoblotting, using the indicated antibodies. b) analysis of p110β catalytic activity. Lipid kinase assay was performed on p110β immunoprecipitated from wild type (PI3Kβ^+/+) and PI3Kβ^KR/KR(High) MEFs. c) proliferation curve of mutant MEFs with high and low PI3Kβ^KR expression levels compared to that of wild-type MEFs with or without 100 nM TGX-221 treatment (TGX).
Since p110β is activated downstream growth factor receptors, and cell growth is the driving force during embryonic development, the present inventors analyzed cell proliferation of PI3Kβ^KR/KR(High), PI3Kβ^KR/KR(Low) and PI3Kβ^+/+ MEFs.

[1] = system: Akt/PKB phosphorylation in liver; assay: Insulin-stimulated Akt phosphorylation in liver of treated mice; format: in vivo, mouse
Experimental: FIG. 5. After insulin stimulation, Akt phosphorylation declines in PI3Kβ^KR/KR liver faster than controls. Phosphorylation of Erk1/2 and Akt (on Thr308 and Ser473) in livers of mice of the given genotype with and without TGX-155 treatment. Lower panel: quantification of Akt phosphorylation on Ser473 (n=5)
To test this hypothesis, Akt/PKB phosphorylation was tested in wild-type and mutant mice in tissues known to be particularly sensitive to insulin signaling like the liver.

[2] = system: wild-type (PI3Kβ^+/+/neuT) tumor derived mammary gland cancer cells; assay: Proliferation curves of cultured tumor derived mammary gland cancer cells; format: cell-based, mouse; details: wild-type tumor cells (FIG. 10)
Experimental: FIG. 10. Requirement of PI3Kβ for cell proliferation of tumor derived mammary gland cancer cell lines. Proliferation curves of cultured tumor cells of the two genotypes in the absence or presence of TGX-155 (10 μM) and TGX-221 (100 nM)p110β selective inhibitors. Statistical significance: wild-type cells vs all other conditions; other pairs of datasets: n.s.
Moreover, to further test if the protection against breast cancer development was intrinsic to the lack of the kinase activity, tumor cells from PI3Kβ^KR/KR and PI3Kβ^+/+ mice were cultured in the presence of p110β selective inhibitors, TGX-155 and TGX-221.

Row | SMILES | growth rate (cell proliferation) of MEFs (PI3Kβ^+/+ MEFs; PI3Kβ^+/+ MEFs treated with TGX-155, versus controls) | Akt phosphorylation after 5 minutes of insulin stimulation ([1]; liver of wild type mice treated with TGX-155, 5 minutes of insulin stimulation (FIG. 5)) | decline of Akt activation after insulin stimulation ([1]; liver, later time of insulin stimulation, versus untreated wild-type controls (FIG. 5)) | proliferation of wild-type tumor cells ([2]; TGX-155 10 μM) | growth rate (cell proliferation) of MEFs (PI3Kβ^+/+ MEFs; PI3Kβ^+/+ MEFs, 100 nM TGX-221, versus controls (FIG. 3c)) | proliferation of wild-type tumor cells ([2]; TGX-221 100 nM)
1 | Cc1cc(F)ccc1Oc1cccc2c(=O)cc(N3CCOCC3)[nH]c12 [TGX-155] | growth rate comparable to that of the controls | no differences in Akt phosphorylation | declined significantly faster | significant reduction in proliferation |  | 
2 | Cc1cc(C(C)Nc2ccccc2)c2nc(N3CCOCC3)cc(=O)n2c1 (stereo not drawn) [TGX-221] |  |  |  |  | growth rate comparable to that of the controls | significant reduction in proliferation
